# “Also recorded” adds a separate entry of the source.
# Legend:
# [1] = molecular target: T1, PCV2 capsid protein (dcapsid) (Porcine circovirus 2, UniProt O56129); experiment: Microscale thermophoresis assay (MST), wild-type dcapsid; type: binding, porcine circovirus type 2 (PCV2)
# T1 construct: hexahistidine (N); made in house; host or cells: Escherichia coli BL21 (DE3)
# [2] = system: PCV2; experiment: Infectivity assay (titer, immunoblotting, qPCR, IFA); type: cell-based, porcine circovirus type 2 (PCV2); settings: for anti-infective (antiviral) effect on PCV2: PK-15 cells, MOI = 1.0
# [3] = molecular target: T2, PCV2 dcapsid bound to Heparin-Sepharose (Porcine circovirus 2, UniProt O56129); experiment: Heparin column chromatography (competitive elution of dcapsid); type: binding, porcine circovirus type 2 (PCV2)
# T2 construct: hexahistidine (N); made in house; host or cells: Escherichia coli BL21 (DE3)
# T2 sequence (O56129 42-233): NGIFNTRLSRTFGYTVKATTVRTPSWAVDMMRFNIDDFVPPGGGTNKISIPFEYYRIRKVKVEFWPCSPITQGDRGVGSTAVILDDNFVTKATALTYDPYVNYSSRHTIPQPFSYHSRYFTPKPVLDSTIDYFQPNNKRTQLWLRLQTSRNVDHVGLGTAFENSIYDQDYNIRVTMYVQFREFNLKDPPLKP
# [4] = molecular target: T3, PCV2 dcapsid mutant D70A (Porcine circovirus 2, UniProt O56129, D70A); experiment: Microscale thermophoresis assay (MST), dcapsid mutant D70A; type: binding, porcine circovirus type 2 (PCV2); settings: read-out: Kd between EGCG and capsid mutant D70A
# T3 construct: hexahistidine (N); made in house; host or cells: Escherichia coli BL21 (DE3)
# T3 sequence (O56129 42-233 D70A): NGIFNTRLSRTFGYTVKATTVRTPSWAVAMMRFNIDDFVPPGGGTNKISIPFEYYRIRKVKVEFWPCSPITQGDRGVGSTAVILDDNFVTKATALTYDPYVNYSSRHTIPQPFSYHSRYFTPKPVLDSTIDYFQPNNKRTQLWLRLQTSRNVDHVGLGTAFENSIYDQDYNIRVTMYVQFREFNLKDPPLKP
# [5] = system: PCV2 dcapsid mutants bound to heparin column; experiment: Heparin column chromatography of dcapsid mutants; type: binding, porcine circovirus type 2 (PCV2)
# [6] = molecular target: T4, PCV2 dcapsid mutant R73A (Porcine circovirus 2, UniProt O56129, R73A); experiment: Microscale thermophoresis assay (MST), dcapsid mutant R73A; type: binding, porcine circovirus type 2 (PCV2); settings: read-out: Kd between EGCG and capsid mutant R73A
# T4 construct: hexahistidine (N); made in house; host or cells: Escherichia coli BL21 (DE3)
# T4 sequence (O56129 42-233 R73A): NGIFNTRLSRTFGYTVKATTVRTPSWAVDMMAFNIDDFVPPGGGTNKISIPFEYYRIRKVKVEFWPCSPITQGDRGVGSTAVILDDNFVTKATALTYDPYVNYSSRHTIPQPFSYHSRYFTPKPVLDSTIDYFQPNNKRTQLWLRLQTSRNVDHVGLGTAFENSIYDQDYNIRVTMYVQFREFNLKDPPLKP
# [7] = system: PCV2 mutant viruses; experiment: Infectivity assay of rescued PCV2 mutant viruses; type: cell-based, porcine circovirus type 2 (PCV2); settings: 100 μM, whole infective process, titers at 72 hpi
# [8] = molecular target: T5, PCV2 dcapsid mutant N75A (Porcine circovirus 2, UniProt O56129, N75A); experiment: Microscale thermophoresis assay (MST), dcapsid mutant N75A; type: binding, porcine circovirus type 2 (PCV2); settings: read-out: Kd between EGCG and capsid mutant N75A
# T5 construct: hexahistidine (N); made in house; host or cells: Escherichia coli BL21 (DE3)
# T5 sequence (O56129 42-233 N75A): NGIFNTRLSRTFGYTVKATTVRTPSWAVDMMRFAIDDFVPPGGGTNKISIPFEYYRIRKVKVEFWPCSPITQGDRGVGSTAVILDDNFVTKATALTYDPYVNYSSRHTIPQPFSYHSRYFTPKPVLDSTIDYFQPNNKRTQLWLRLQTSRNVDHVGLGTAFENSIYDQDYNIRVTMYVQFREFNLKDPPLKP
# [9] = system: PCV2; experiment: Time of addition and dilution experiment; type: cell-based, porcine circovirus type 2 (PCV2); settings: for inhibitory effect of post-infection treatment: immunoblotting at 72 hpi
# [10] = molecular target: T6, PCV2 dcapsid mutant D78A (Porcine circovirus 2, UniProt O56129, D78A); experiment: Microscale thermophoresis assay (MST), dcapsid mutant D78A; type: binding, porcine circovirus type 2 (PCV2); settings: read-out: Kd between EGCG and capsid mutant D78A
# T6 construct: hexahistidine (N); made in house; host or cells: Escherichia coli BL21 (DE3)
# T6 sequence (O56129 42-233 D78A): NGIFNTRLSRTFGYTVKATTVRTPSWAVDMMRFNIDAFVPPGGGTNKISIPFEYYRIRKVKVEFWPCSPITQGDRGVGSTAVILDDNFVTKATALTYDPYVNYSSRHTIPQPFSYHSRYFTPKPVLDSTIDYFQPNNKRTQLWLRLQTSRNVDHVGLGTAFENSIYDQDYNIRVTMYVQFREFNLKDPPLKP
# [11] = system: PCV2 virions; experiment: Binding assay of virions to PK-15 cells (qPCR, flow cytometry); type: cell-based, porcine circovirus type 2 (PCV2); settings: 100 μM, binding 1 h at 4 °C, MOI = 5.0
# [12] = molecular target: T7, PCV2 dcapsid mutant G54A (Porcine circovirus 2, UniProt O56129, G54A); experiment: Microscale thermophoresis assay (MST), dcapsid mutant G54A; type: binding, porcine circovirus type 2 (PCV2); settings: read-out: Kd between EGCG and capsid mutant G54A
# T7 construct: hexahistidine (N); made in house; host or cells: Escherichia coli BL21 (DE3)
# T7 sequence (O56129 42-233 G54A): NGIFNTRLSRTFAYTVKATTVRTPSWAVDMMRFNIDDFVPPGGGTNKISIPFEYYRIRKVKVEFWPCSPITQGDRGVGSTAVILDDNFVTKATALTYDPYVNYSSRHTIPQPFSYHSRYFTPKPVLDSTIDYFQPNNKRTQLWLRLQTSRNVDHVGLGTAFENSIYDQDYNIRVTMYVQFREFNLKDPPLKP
# [13] = system: PK-15 cells; experiment: Cytotoxicity assay (CCK8); type: cell-based, Porcine
# [14] = molecular target: T8, PCV2 dcapsid mutant R51A (Porcine circovirus 2, UniProt O56129, R51A); experiment: Microscale thermophoresis assay (MST), dcapsid mutant R51A; type: binding, porcine circovirus type 2 (PCV2); settings: read-out: Kd between EGCG and capsid mutant R51A
# T8 construct: hexahistidine (N); made in house; host or cells: Escherichia coli BL21 (DE3)
# T8 sequence (O56129 42-233 R51A): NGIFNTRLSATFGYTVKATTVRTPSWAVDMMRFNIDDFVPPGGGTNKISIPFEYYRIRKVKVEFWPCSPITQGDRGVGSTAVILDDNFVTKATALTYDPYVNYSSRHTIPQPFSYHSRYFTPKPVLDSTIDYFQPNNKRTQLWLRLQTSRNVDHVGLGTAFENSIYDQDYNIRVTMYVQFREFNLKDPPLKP
# T1 sequence (O56129 42-233): as the sequence (O56129 42-233) above
molecule,measurement,setting,value
"Oc1cc(O)c2c(c1)O[C@H](c1ccc(O)c(O)c1)[C@H](O)C2 [EC, epicatechin, reference compound]",Kd,[1],951.3 ± 6.81 µM
same,lower affinity to capsid than EGCG,"[1]; MST, ratio of Kd",10 fold
same,anti-infective (antiviral) effect on PCV2,[2]; 100 μM,no considerable anti-infective effect; also recorded: did not exert an antiviral effect
same,dcapsid protein fraction eluted from heparin column,[3]; competitor 0.05 mg/mL,10.33 ± 4.50%
"O=C(O[C@@H]1Cc2c(O)cc(O)cc2O[C@@H]1c1cc(O)c(O)c(O)c1)c1cc(O)c(O)c(O)c1 [EGCG, Epigallocatechin gallate]",Kd,[4],863.7 ± 7.23 µM
same,"eluted level of R51A, D70A, R73A and D78A mutants","[5]; 0.5 mg/mL EGCG, especially D70A and D78A",remarkably reduced
same,Kd,[6],971 ± 9.54 µM
same,Kd,[1],98 ± 4.76 µM
same,antiviral effect on PCV2 (D70A) and PCV2 (D78A),[7],could not be detected
same,"antiviral effect on PCV2 (G54A), PCV2 (N75A), PCV2 (WT) and PCV2 (A135A)",[7],could inhibit the infectivity
same,Kd,[8],164 ± 5.29 µM
same,inhibitory effect of post-infection treatment,[9]; 100 μM for 4 h or 12 h after PCV2 infection,significant inhibitory effect could not be detected
same,inhibitory effect of post-infection treatment,[9]; 100 μM for 24 h after PCV2 infection,only a slight effect
same,"inhibitory effect, pre-treated cells group","[9]; cells pre-exposed 60 min at 37 °C, then infected, 72 hpi, immunoblotting, qPCR, titer",inhibitory effect could not be detected
same,antiviral effect in dilution assay,"[9]; virions pretreated with 100 μM, diluted 10-fold before inoculation, immunoblotting, qPCR, titer",antiviral effect could still be detected
same,"antiviral effect, pre-treated virions group","[9]; virus premixed with 10 μM, 72 hpi",non-sensitive
same,"antiviral effect, pre-treated virions group","[9]; virus premixed with 100 μM, 72 hpi",prominent antiviral effect
same,Kd,[10],1061 ± 8.08 µM
same,bound PCV2 particles (qRT-PCR),[11],decrease significantly
same,proportion of PCV2-attached cells (flow cytometry),[11]; untreated ~70%,~ 55%
same,Kd,[12],99.3 ± 9.29 µM
same,cytotoxicity to PK-15 cells,"[13]; 100 μM, 24 h, 72 h and 120 h",did not generate significant cytotoxicity; also recorded: without causing significant toxicity
same,cytotoxicity to PK-15 cells,[13]; 200 μM,could produce cytotoxicity
same,Kd,[14],591 ± 5.57 µM
same,"inhibitory effect of PCV2 infection (immunoblotting, qPCR)","[2]; 10 μM, 72 hpi",still detectable
same,viral capsid protein expression (immunoblotting),"[2]; 100 μM, 72 hpi",reduced level
same,viral genome copy number (qPCR),"[2]; 100 μM, 72 hpi",reduction
same,quantity of PCV2 infected cells (IFA),"[2]; 100 μM, MOI = 1.0, vs. without treatment",obviously lower
same,anti-infective (antiviral) effect on PCV2,[2]; 100 μM,exhibited an inhibitory effect
same,virus titer of PCV2 infected cells,"[2]; 100 μM, whole infective process, various time points, vs. without treatment",significant decrease
same,dcapsid protein fraction eluted from heparin column,[3]; competitor 0.05 mg/mL,42.33 ± 3.52%
same,dcapsid protein fraction eluted from heparin column,[3]; competitor 0.5 mg/mL,90.00 ± 5.29%
heparin [reference compound],eluted level of R51A and R73A mutants,[5]; 0.5 mg/mL heparin,most significant eluted reduction
